The values below come from ChEMBL document CHEMBL1201862, “PubChem BioAssay data set” (2004).

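Grown in 96-well plates, cells were treated for 48 hours with each compound at five concentrations. Insufficient inhibition: endpoint recorded as highest concentration tested. Abbreviation: GI50, concentration required for 50% inhibition of growth.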 Activity calls are given as the source filed them. No stated cut-off is given here; in the data, active = GI50 up to about 1.1 µM and inactive = higher. Some results are limits rather than exact numbers.

What all share (assay): NCI-60 cell line screen, 48 h
Assay [1] has as its system A498.
Assay [2] relates to K562.
The test system of assay [3] is NCI-H522.
In assay [4] the test system is UO-31.
Assay [5] relates to IGROV-1.
The subject of assay [6] is OVCAR-4.
The test system of assay [7] is EKVX.
Assay [8] relates to COLO 205.
In assay [9] the test system is Hs-578T.
Assay [10] concerns KM12.
Assay [11] concerns SF-295.
For assay [12], the system named is SR.
The test system of assay [13] is 786-0.
Assay [14] concerns MDA-MB-231.
Assay [15] concerns A549.
For assay [16], the system named is OVCAR-8.
Assay [17] has as its system SK-MEL-28.
Assay [18] deals with HCT-15.
In assay [19] the test system is TK-10.
In assay [20] the test system is RPMI-8226.

On to `CC(C)c1ccc2nc3ccc(C(=O)NCCN4CCN(c5ccccc5)CC4)cn3c(=O)c2c1`, for which the GI50 in [1] is 29.9 µM (inactive); in assay [2], 2.45 µM (inactive); in [3], 5.58 µM (inactive); in assay [4] it was 4.9 µM (inactive); in assay [5] it was > 100 µM (inactive); in [6] it was > 100 µM (inactive). Further, the GI50 was > 100 µM (inactive) in assay [7]; 3.33 µM (inactive) in assay [8]; 4.93 µM (inactive) in [9]; 20.2 µM (inactive) in assay [10]; 2.22 µM (inactive) in assay [11]; 2.51 µM (inactive) in assay [12]. Further, the GI50 in assay [13] was 3.21 µM (inactive); in assay [14], > 100 µM (inactive); in [15] it was > 100 µM (inactive); in assay [16], 4.33 µM (inactive); in assay [17], 2.82 µM (inactive); in [18] it was 6.38 µM. Also, the GI50 in assay [19] is 3.56 µM (inactive).

Consider `Sc1nc2c(c(-c3nc(S)nc4c3CCCCCCCCCC4)n1)CCCCCCCCCC2`, for which the GI50 in assay [1], in assay [2], in assay [3], in assay [4], in assay [5] and in assay [6] was > 100 µM (inactive) in each case. The GI50 in assay [7], in assay [8], in [9], in [10], in [11] and in assay [12] was > 100 µM (inactive) each time. Further, the GI50 is > 100 µM (inactive) in assay [13]; > 100 µM (inactive) in assay [14]; > 100 µM (inactive) in assay [15]; > 100 µM (inactive) in assay [16]; > 100 µM (inactive) in [17]; > 100 µM in assay [18]. In addition, in [19], the GI50 was > 100 µM (inactive).

With `CN(C)c1ccc(/C=C(\C#N)C(N)=C(C#N)C#N)cc1`, the GI50 in assay [1], in assay [2], in assay [3], in [4], in assay [5] and in assay [6] was > 100 µM (inactive) throughout. Moreover, the GI50 in [7], in [8], in assay [9], in [10], in assay [11] and in assay [12] was > 100 µM (inactive) in each case. Besides, the GI50 is > 100 µM (inactive) in [13]; > 100 µM (inactive) in assay [14]; > 100 µM (inactive) in [15]; > 100 µM (inactive) in assay [16]; 80 µM (inactive) in assay [17]; > 100 µM in [18]. Further, in assay [19], the GI50 is > 100 µM (inactive).

Consider `COc1ccc2c(c1)CCCN1CCc3ccccc3C21` (centres undefined), for which the GI50 in assay [1] is 55.3 µM (inactive); in assay [2], 45.7 µM (inactive); in [3], 52.1 µM (inactive); in assay [5], 50 µM (inactive); in [6] it was > 100 µM (inactive); in assay [7] it was 76.4 µM (inactive). In addition, the GI50 in assay [8] was 22.4 µM (inactive); in [9] it was 35.7 µM (inactive); in [10], 34.7 µM (inactive); in assay [11] it was 24.7 µM (inactive); in assay [12], 20 µM (inactive); in assay [13], 26.6 µM (inactive). The GI50 in [14] was 23.9 µM (inactive); in assay [15], 37.3 µM (inactive); in [16] it was 39.9 µM (inactive); in [17] it was 36.5 µM (inactive); in assay [18], 30.5 µM; in assay [19] it was 43.1 µM (inactive).

`COC(=O)[C@H]1C[C@H]1NC(=O)C(CC(=O)OCc1ccccc1)NC(=O)OCc1ccccc1` (some centres undefined): the GI50 in [1] is 61.8 µM (inactive); in [2] it was 59.7 µM (inactive); in assay [3], 40.8 µM (inactive); in assay [5], 52.1 µM (inactive); in assay [7] it was 44.3 µM (inactive); in assay [8], 24.4 µM (inactive). Moreover, the GI50 in assay [9] was > 100 µM (inactive); in [10], 31.6 µM (inactive); in assay [11], 50.7 µM (inactive); in assay [12], 29.8 µM (inactive); in assay [13], > 100 µM (inactive); in assay [20] it was 19.1 µM (inactive). In addition, the GI50 in [14] was > 100 µM (inactive); in assay [15], 43.8 µM (inactive); in assay [16], 40 µM (inactive); in assay [17] it was 53.7 µM (inactive); in assay [18], 73.1 µM; in [19] it was 74.6 µM (inactive).

Turning to `CC(C)(C)N/N=C(/Cc1nc2c3c(ccc2nc1O)C(=O)c1ccccc1C3=O)C(=O)NC1=C(Cl)C(=O)c2ccccc2C1=O`, the GI50 in assay [1] was 88.9 µM (inactive); in [2], 85.3 µM (inactive); in assay [3], 16.9 µM (inactive); in assay [4] it was 4.91 µM (inactive); in assay [5] it was 5.14 µM (inactive); in assay [6], 5.16 µM (inactive). In addition, the GI50 was 61.2 µM (inactive) in assay [7]; 24 µM (inactive) in [8]; 24.7 µM (inactive) in [9]; 2.7 µM (inactive) in assay [10]; 39.4 µM (inactive) in assay [11]; 27.7 µM (inactive) in [12]. Also, the GI50 in [13] was 33.2 µM (inactive); in [20], 78.9 µM (inactive); in [14], 1.98 µM (inactive); in [15], 18.3 µM (inactive); in [16], 10 µM (inactive); in assay [17] it was > 100 µM (inactive). In addition, the GI50 in assay [18] was 4.26 µM.

`COc1ccc2oc(=O)c3c(c2c1C)OC(C)(C)C=C3`: the GI50 in [1], in assay [2], in assay [3], in assay [4], in assay [5] and in assay [7] was > 100 µM (inactive) throughout. Further, the GI50 in assay [8], in [9], in assay [10], in [11], in assay [12] and in [13] was > 100 µM (inactive) each time. The GI50 is > 100 µM (inactive) in assay [20]; > 100 µM (inactive) in [14]; > 100 µM (inactive) in assay [15]; > 100 µM (inactive) in assay [16]; > 100 µM (inactive) in [17]; > 100 µM in [18]. In addition, the GI50 in [19] was > 100 µM (inactive).

Consider `O=[N+]([O-])c1ccc(-c2cn(-c3ccc(Cl)cc3)cn2)cc1`, for which the GI50 was 40.7 µM (inactive) in assay [1]; > 100 µM (inactive) in assay [2]; 3.76 µM (inactive) in assay [3]; 45 µM (inactive) in [4]; 41.6 µM (inactive) in [5]; 32.7 µM (inactive) in assay [7]. Moreover, the GI50 was > 100 µM (inactive) in [8]; 41.6 µM (inactive) in assay [9]; > 100 µM (inactive) in [10]; 18.7 µM (inactive) in assay [11]; > 100 µM (inactive) in assay [12]; 16.6 µM (inactive) in [13]. The GI50 in assay [20] was 89.5 µM (inactive); in [14], 27.2 µM (inactive); in [15], 27.4 µM (inactive); in assay [16] it was 36.6 µM (inactive); in assay [17], > 100 µM (inactive); in assay [18], > 100 µM. Moreover, the GI50 in assay [19] was 40.3 µM (inactive).

Consider `CC1(C)CCC(C)(C)C1C(=O)NC(O)C(=O)O` (centres undefined), for which the GI50 in assay [1], in assay [2], in [4], in [5], in assay [7] and in [8] was > 100 µM (inactive) throughout. Besides, the GI50 in assay [9], in assay [12], in assay [13], in assay [20], in assay [14] and in assay [15] was > 100 µM (inactive) throughout. Besides, the GI50 in [16] is > 100 µM (inactive); in assay [17], > 100 µM (inactive); in [18] it was > 100 µM; in [19], > 100 µM (inactive).

With `Clc1c(C(Cl)(Cl)Cl)nsc1N1CCCCC1`, the GI50 was 20 µM (inactive) in assay [1]; 19.1 µM (inactive) in [2]; 11.4 µM (inactive) in assay [4]; 36 µM (inactive) in [5]; 25.6 µM (inactive) in assay [6]; 29.9 µM (inactive) in assay [7]. Also, the GI50 is 16.5 µM (inactive) in [8]; 31.3 µM (inactive) in assay [9]; 20.7 µM (inactive) in assay [10]; 22.3 µM (inactive) in assay [11]; 16.1 µM (inactive) in assay [12]; 17.9 µM (inactive) in [13]. For the same molecule, the GI50 in assay [20] was 12.6 µM (inactive); in assay [14], 23.8 µM (inactive); in [15] it was 33.9 µM (inactive); in assay [16] it was 27.4 µM (inactive); in [17], 33 µM (inactive); in assay [18], 26.5 µM. Moreover, in assay [19], the GI50 is 31.6 µM (inactive).

`COc1cc2c(c(OC)c1)[C@H](C)N(Cc1ccccc1)C(C)C2` (some centres undefined): the GI50 was > 100 µM (inactive) in assay [1]; 21.9 µM (inactive) in assay [2]; > 100 µM (inactive) in assay [3]; 54.2 µM (inactive) in assay [4]; 29.4 µM (inactive) in assay [5]; > 100 µM (inactive) in assay [7]. Also, the GI50 in assay [8] was 29.5 µM (inactive); in [9] it was 25.5 µM (inactive); in [10] it was 30.2 µM (inactive); in assay [11], 16.3 µM (inactive); in assay [12], 25.8 µM (inactive); in assay [13], 36.1 µM (inactive). The GI50 in assay [20] was 21.3 µM (inactive); in assay [14] it was 36.3 µM (inactive); in assay [15], 43.5 µM (inactive); in assay [16], 74.1 µM (inactive); in assay [17], 30.5 µM (inactive); in assay [18], 28.6 µM. Further, the GI50 in assay [19] was 37.2 µM (inactive).
